In PubChem BioAssay (NCI):
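Grown in 96-well plates, cells were treated for 48 hours with each compound at five concentrations. Insufficient inhibition: endpoint recorded as highest concentration tested. GI50 = concentration required for 50% inhibition of growth. TGI is the concentration that stops growth completely.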

Key:
Experiment in all cases: DTP human tumour cell line panel, 48 h
SK-MEL-2 melanoma = test system: SK-MEL-2 melanoma
LOX IMVI melanoma = test system: LOX IMVI melanoma
HS 578T breast = test system: HS 578T breast
SF-295 CNS = test system: SF-295 CNS
HL-60(TB) leukemia = test system: HL-60(TB) leukemia
COLO 205 colon = test system: COLO 205 colon
MCF7 breast = test system: MCF7 breast
PC-3 prostate = test system: PC-3 prostate
RPMI-8226 leukemia = test system: RPMI-8226 leukemia
NCI/ADR-RES ovarian = test system: NCI/ADR-RES ovarian
SF-539 CNS = test system: SF-539 CNS
NCI-H23 lung = test system: NCI-H23 lung
SW-620 colon = test system: SW-620 colon
CAKI-1 renal = test system: CAKI-1 renal
A498 renal = test system: A498 renal
HOP-62 NSCLC = test system: HOP-62 NSCLC
HT29 colon = test system: HT29 colon
HCT-15 colon = test system: HCT-15 colon
UO-31 renal = test system: UO-31 renal
SF-268 CNS = test system: SF-268 CNS
M14 melanoma = test system: M14 melanoma
CCRF-CEM leukemia = test system: CCRF-CEM leukemia
KM12 colon = test system: KM12 colon
UACC-257 melanoma = test system: UACC-257 melanoma
SK-MEL-5 melanoma = test system: SK-MEL-5 melanoma
MOLT-4 leukemia = test system: MOLT-4 leukemia
786-0 renal = test system: 786-0 renal
OVCAR-3 ovarian = test system: OVCAR-3 ovarian
MDA-MB-435 = test system: MDA-MB-435
SNB-75 CNS = test system: SNB-75 CNS
SK-MEL-28 melanoma = test system: SK-MEL-28 melanoma
RXF 393 renal = test system: RXF 393 renal
HCT-116 colon = test system: HCT-116 colon
U251 CNS = test system: U251 CNS
A549 NSCLC = test system: A549 NSCLC
HCC-2998 colon = test system: HCC-2998 colon
SNB-19 CNS = test system: SNB-19 CNS
SK-OV-3 ovarian = test system: SK-OV-3 ovarian
OVCAR-8 ovarian = test system: OVCAR-8 ovarian
OVCAR-5 ovarian = test system: OVCAR-5 ovarian
HOP-92 NSCLC = test system: HOP-92 NSCLC
MDA-MB-231 breast = test system: MDA-MB-231 breast
OVCAR-4 ovarian = test system: OVCAR-4 ovarian
NCI-H460 lung = test system: NCI-H460 lung
K-562 leukemia = test system: K-562 leukemia
UACC-62 melanoma = test system: UACC-62 melanoma
ACHN renal = test system: ACHN renal
EKVX NSCLC = test system: EKVX NSCLC
BT-549 breast = test system: BT-549 breast
NCI-H226 lung = test system: NCI-H226 lung
IGROV1 ovarian = test system: IGROV1 ovarian
DU-145 prostate = test system: DU-145 prostate
SR leukemia = test system: SR leukemia
SN12C renal = test system: SN12C renal
NCI-H522 lung = test system: NCI-H522 lung
MALME-3M melanoma = test system: MALME-3M melanoma
T-47D breast = test system: T-47D breast
TK-10 renal = test system: TK-10 renal

## COc1ccc(-c2oc3ncnc(N)c3c2-c2ccc(NC(=O)Nc3cc(C(F)(F)F)ccc3F)cc2)cc1
SK-MEL-2 melanoma
  GI50: 1.01 µM
  TGI: 3.5 µM
LOX IMVI melanoma
  GI50: 0.658 µM
  TGI: 3.21 µM
HS 578T breast
  GI50: 0.833 µM
  TGI: 4.67 µM
SF-295 CNS
  GI50: 1.88 µM
  TGI: 7.47 µM
HL-60(TB) leukemia
  GI50: 2.58 µM
  TGI: 9.31 µM
COLO 205 colon
  GI50: 0.558 µM
  TGI: 1.45 µM
MCF7 breast
  GI50: 0.675 µM
  TGI: 3.21 µM
PC-3 prostate
  GI50: 1.94 µM
  TGI: 11.4 µM
RPMI-8226 leukemia
  GI50: 2.26 µM
  TGI: 10.1 µM
NCI/ADR-RES ovarian
  GI50: 1.17 µM
  TGI: 6.24 µM
SF-539 CNS
  GI50: 1.55 µM
  TGI: 5.41 µM
NCI-H23 lung
  GI50: 0.823 µM
  TGI: 3.26 µM
SW-620 colon
  GI50: 0.952 µM
  TGI: 3.58 µM
CAKI-1 renal
  GI50: 0.838 µM
  TGI: 6.69 µM
A498 renal
  GI50: 0.329 µM
  TGI: 2.55 µM
HOP-62 NSCLC
  GI50: 0.953 µM
  TGI: 3.38 µM
HT29 colon
  GI50: 0.844 µM
  TGI: 3.12 µM
HCT-15 colon
  GI50: 1.04 µM
  TGI: 6.65 µM
UO-31 renal
  GI50: 0.706 µM
  TGI: 5.01 µM
SF-268 CNS
  GI50: 1.03 µM
  TGI: 3.76 µM
M14 melanoma
  GI50: 0.806 µM
  TGI: 3.23 µM
CCRF-CEM leukemia
  GI50: 0.934 µM
  TGI: 11.8 µM
KM12 colon
  GI50: 0.00588 µM
  TGI: 1.51 µM
UACC-257 melanoma
  GI50: 2.46 µM
  TGI: 6.69 µM
SK-MEL-5 melanoma
  GI50: 1.52 µM
  TGI: 4.41 µM
MOLT-4 leukemia
  GI50: 1.64 µM
  TGI: 8.98 µM
786-0 renal
  GI50: 1.45 µM
  TGI: 5.49 µM
OVCAR-3 ovarian
  GI50: 1.3 µM
  TGI: 4.32 µM
MDA-MB-435
  GI50: 0.871 µM
  TGI: 3.95 µM
SNB-75 CNS
  GI50: 1.51 µM
  TGI: 4.35 µM
SK-MEL-28 melanoma
  GI50: 1.94 µM
  TGI: 5.26 µM
RXF 393 renal
  GI50: 0.473 µM
  TGI: 1.15 µM
HCT-116 colon
  GI50: 0.883 µM
  TGI: 2.84 µM
U251 CNS
  GI50: 0.997 µM
  TGI: 3.83 µM
A549 NSCLC
  GI50: 0.762 µM
  TGI: 3.43 µM
HCC-2998 colon
  GI50: 2.08 µM
  TGI: 5.81 µM
SNB-19 CNS
  GI50: 1.61 µM
  TGI: 12.2 µM
SK-OV-3 ovarian
  GI50: 0.894 µM
  TGI: 5.09 µM
OVCAR-8 ovarian
  GI50: 0.79 µM
  TGI: 3.73 µM
OVCAR-5 ovarian
  GI50: 3.15 µM
  TGI: 8.82 µM
HOP-92 NSCLC
  GI50: 0.808 µM
  TGI: 5.4 µM
MDA-MB-231 breast
  GI50: 1.1 µM
  TGI: 6.17 µM
OVCAR-4 ovarian
  GI50: 1.05 µM
  TGI: 8.45 µM
NCI-H460 lung
  GI50: 0.85 µM
  TGI: 2.97 µM
K-562 leukemia
  GI50: 1.19 µM
  TGI: 16.6 µM
UACC-62 melanoma
  GI50: 0.956 µM
  TGI: 4.23 µM
ACHN renal
  GI50: 0.95 µM
  TGI: 7.89 µM
EKVX NSCLC
  GI50: 1.59 µM
  TGI: 9.74 µM
BT-549 breast
  GI50: 1.82 µM
  TGI: 5.08 µM
NCI-H226 lung
  GI50: 0.601 µM
  TGI: 8.36 µM
IGROV1 ovarian
  GI50: 0.995 µM
  TGI: 5.82 µM
DU-145 prostate
  GI50: 1.14 µM
  TGI: 4.16 µM
SR leukemia
  GI50: 0.833 µM
  TGI: 8.61 µM
SN12C renal
  GI50: 0.828 µM
  TGI: 3.75 µM
NCI-H522 lung
  GI50: 1.23 µM
  TGI: 4.28 µM
MALME-3M melanoma
  GI50: 1.81 µM
  TGI: 6.22 µM
T-47D breast
  GI50: 1.94 µM
  TGI: 10.1 µM
TK-10 renal
  GI50: 0.67 µM
  TGI: 3.37 µM
